Where two headings read alike, the source gives them in different places. Some results are limits rather than exact numbers.

Assay [1] concerns the target recombinant human p38α (Homo sapiens, UniProt Q16539). As to the kind of experiment: Purified and activated recombinant human p38α HTRF assay. Conditions: 1 nM p38α, 50 μM ATP, GST-ATF2 substrate, read-out: p38a IC50. In kind it is biochemical. How it is done:
Purified and Activated Recombinant Human p38α Assay Kinase Reaction Buffer: […] HTRF Detection Buffer: […] Serial Dilution of Compounds: […] Columns 6 and 12 (HI controls and LO controls respectively) in the drug plate were reserved as controls and contained only DMSO. Kinase Reaction: […] See table below for actual concentrations. In the absence of substrate, the background was measured as LO control. […] Assay Reagent Concentrations: […] HTRF Detection: […] After 60 minutes incubation at room temperature, the assay plate was read in a Discovery Plate Reader. The wells were excited with coherent 320 nm light and the ratio of delayed ([…] post excitation) emissions at […] (native europium fluorescence) and 665 nm (europium fluorescence transferred to allophycocyanin-an index of substrate phosphorylation) was determined (Park et al, 1999). Data Analysis: […] Data (consisting of POC and inhibitor concentration in μM) was fitted to a 4-parameter equation ([…]))), where A is the minimum y (POC) value, B is the maximum y (POC), C is the x (compound concentration) at the point of inflection and D is the slope factor, using a Levenburg-Marquardt non-linear regression algorithm. The inhibition constant (Ki) of the inhibitor was estimated from the IC50 (compound concentration at the point of inflection C) using the Cheng-Prussof equation: […] All results were expressed as the mean±the standard error of the mean. Data acquisition and non-linear regression algorithms were performed using Activity Base v5.2 and XL-fit software v4.1 respectively. All data was archived using Activity Base v5.2 software.
For orientation: Time-resolved FRET reads energy transfer from a long-lived donor to a nearby acceptor.

In assay [2] the test system is production of IL-1β, IL-6, and TNF-α by PBMC activated with LPS. In words: Lipopolysaccharide-activated PBMC cytokine production assay. In kind it is cell-based. The following applies: Homo sapiens, read-out: IC50 in PBMC cytokine production assay. How it is done:
Lipopolysaccharide-Activated Pbmc Cytokine Production Assay
Test compounds were evaluated in vitro for the ability to inhibit the production of IL-1β, IL-6, and TNF-α by PBMC activated with bacterial lipopolysaccharide (LPS). Fresh leukocytes were obtained from a local blood bank, and peripheral blood mononuclear cells (PBMCs) were isolated by density gradient centrifugation on Ficol-Paque Plus (Pharmacia).
Preparation of Test Compound Stock Solutions
All reagents were prepared in RPMI 1640+10% v/v human AB serum+1× Pens/Strep/Glu (assay medium). Test compounds were dissolved in 100% DMSO and serially diluted in 96-well polypropylene round bottom micro titer plates (drug plate). Serial dilutions were then diluted 1:250 into assay medium to a 4× working concentration. Compound serial dilutions were half-log, 10 point titrations with a final starting concentration of 1 μM.
Treatment of Cells with Test Compounds and Activation with Lipopolysaccharide
LPS was prepared to a 4× concentration in assay medium. 100 μl of PBMC (1×10^6 cells/ml) were plated in a 96-well polystyrene flat bottom micro titer tissue culture plate and incubated with 50 μl of 4× compound serial dilution for 1 hour at 37° C., 5% CO2 in a tissue culture incubator. 50 μl 4×LPS or control was added and the plates were incubated at 37° C., 5% CO2 in a tissue culture incubator for 18 hours. The final DMSO concentration was 0.1%. The total volume was 200 μL. The final LPS concentration was 100 ng/mL. After 18 hours culture supernatants were removed and IL-1β, IL-6, and TNF-α presence in the supernatants was quantified using MSD ECL based technology.
20 μL of culture supernatant were added to MSD plates, and incubated for one hour at room temperature. 20 μL of detection antibody diluted in antibody diluent (1 μg/mL), and 110 μL of 2× Read Buffer P was added, and incubated for one hour at RT. Electrochemiluminescence was measured using the SECTOR HTS Imager (MSD, Gaithersburg, Md.).
Compound IC50 values were calculated as follows: The proportion of cytokine production in the presence of compound compared to the cytokine production in the presence of the DMSO vehicle alone (Hi control) was calculated using the formula: Percent Control (POC)=(compound−average Lo)/(average Hi−average Lo)*100.

Assay [3] concerns TNF-α production by LPS-activated THP1 cells. As to the kind of experiment: Lipopolysaccharide-activated THP1 cell TNF production assay. In kind it is cell-based. The following applies: Homo sapiens, read-out: IC50 in THP-1 cellular TNF production assay. The protocol:
Lipopolysaccharide-Activated THP1 Cell TNF Production Assay
THP1 cells were resuspended in fresh THP1 media (RPMI 1640, 10% heat-inactivated FBS, 1×PGS, 1×NEAA, plus 30 μM βME) at a concentration of 1.5×10^6 cells per mL. One hundred microliters of cells per well were plated in a polystyrene 96-well tissue culture plate. 1.5 micrograms per mL of bacterial LPS was prepared in THP1 media and transferred to the first 11 columns of a 96-well polypropylene plate. Column 12 contained only THP1 media for the LO control. Compounds were dissolved in 100% DMSO and serially diluted 3 fold in a polypropylene 96-well microtiter plate (drug plate). Columns 6 and 12 were reserved as controls (HI controls and LO controls respectively) and contained only DMSO. 10 μL of LPS followed by one microliter of inhibitor compound from the drug plate was transferred to the cell plate. The treated cells were induced to synthesize and secrete TNF-α in a 37° C. humidified incubator with 5% CO2 for 3 hours. Fifty microliters of conditioned media was transferred to a 96-well MULTI-ARRAY™ 96-well small spot plate—custom coated with MAB610 containing 100 μL of 2× Read Buffer P supplemented with 0.34 nM AF210NA polyclonal Ab labeled with ruthenium (MSD—Sulfo-TAG™—NHS ester). After an overnight incubation at room temperature with shaking, the reaction was read on the Sector Imager™ 6000. […] The amount of secreted TNF-α in the presence of test compounds compared with that in the presence of DMSO vehicle alone (HI control) was calculated using the formula: % control (POC)=(cpd−average LO)/(average HI−averageLO)*100. Data (consisting of POC and inhibitor concentration in μM) was fitted to a 4-parameter equation (y=A+((B−A)/(1+((x/C)^D))), where A is the minimum y (POC) value, B is the maximum y (POC), C is the x (cpd concentration) at the point of inflection and D is the slope factor) using a Levenburg-Marquardt non-linear regression algorithm.

Where [4] appears, read: THP-1, THP1 cells, LPS, 3 hours.

recombinant human p38α, sequence (Q16539 whole entry): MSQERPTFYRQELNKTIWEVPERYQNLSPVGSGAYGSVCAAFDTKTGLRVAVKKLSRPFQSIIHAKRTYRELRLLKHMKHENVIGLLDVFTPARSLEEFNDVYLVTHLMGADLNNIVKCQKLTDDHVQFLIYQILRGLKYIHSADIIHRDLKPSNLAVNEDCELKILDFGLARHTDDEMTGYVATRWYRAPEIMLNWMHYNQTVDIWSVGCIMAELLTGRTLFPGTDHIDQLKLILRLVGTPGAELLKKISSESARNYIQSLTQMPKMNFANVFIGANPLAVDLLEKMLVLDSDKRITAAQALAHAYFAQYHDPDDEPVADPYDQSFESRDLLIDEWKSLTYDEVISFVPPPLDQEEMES

Regarding `Cc1ccc(C(N)=O)cc1-c1cc2cnnc(-c3ccc(F)cc3F)c2n(C)c1=O` [Example 2, 3-(8-(2,4-difluorophenyl)-1-methyl-2-oxo-1,2-dihydropyrido[3,2-d]pyridazin-3-yl)-4-methylbenzamide], the IC50 (in general, the concentration that inhibits the measured activity by half) in assay [1] was 3 nM; in assay [2] (18 h), ≤ 1000 nM; in assay [3] (THP-1, 3 h) it was ≤ 1000 nM.

Consider `Cn1c(=O)c(-c2cc(C(=O)NC3CC3)ccc2Cl)cc2cnnc(-c3ccc(F)cc3F)c21` [Example 5, 4-chloro-N-cyclopropyl-3-(8-(2,4-difluorophenyl)-1-methyl-2-oxo-1,2-dihydropyrido[3,2-d]pyridazin-3-yl)benzamide], for which the IC50 in assay [1] was 1.6 nM; in assay [2] (18 h), ≤ 1000 nM; in assay [3] (THP-1, 3 h) it was ≤ 1000 nM.

Take `Cc1ccc(C(=O)NC2CC2)cc1-c1cc2cnnc(-c3ccccc3C)c2n(C)c1=O` [Example 6, N-cyclopropyl-4-methyl-3-(1-methyl-2-oxo-8-o-tolyl-1,2-dihydropyrido[3,2-d]pyridazin-3-yl)benzamide]: the IC50 in assay [1] is 11.4 nM; in assay [2] (18 h), ≤ 1000 nM; in assay [3] (THP-1, 3 h), ≤ 1000 nM.

On to `Cc1ccccc1-c1nncc2cc(-c3cc(C(=O)NC4CC4)cc(F)c3C)c(=O)n(C)c12` [Example 7, N-cyclopropyl-3-fluoro-4-methyl-5-(1-methyl-2-oxo-8-o-tolyl-1,2-dihydropyrido[3,2-d]pyridazin-3-yl)benzamide], for which the IC50 in assay [1] was 1.5 nM; in assay [2] (18 h) it was ≤ 1000 nM; in assay [3] (THP-1, 3 h), ≤ 1000 nM.

For `Cc1ccc(C(=O)NC2CC2)cc1-c1cc2cnnc(-c3ccccc3Cl)c2n(C)c1=O` [Example 8, 3-(8-(2-chlorophenyl)-1-methyl-2-oxo-1,2-dihydropyrido[3,2-d]pyridazin-3-yl)-N-cyclopropyl-4-methylbenzamide], the IC50 in assay [1] is 1.6 nM; in assay [2] (18 h), ≤ 1000 nM; in assay [3] (THP-1, 3 h) it was ≤ 1000 nM.

Turning to `Cc1ccc(C(=O)NC2CC2)cc1-c1cc2cnnc(-c3ccc(C(F)(F)F)cc3F)c2n(C)c1=O` [Example 9, N-cyclopropyl-3-(8-(2-fluoro-4-(trifluoromethyl)phenyl)-1-methyl-2-oxo-1,2-dihydropyrido[3,2-d]pyridazin-3-yl)-4-methylbenzamide], the IC50 in assay [1] was 2 nM; in assay [2] (LPS 100 ng/mL, 18 hours), ≤ 1000 nM; in assay [3] (setting [4]) it was ≤ 1000 nM.

`Cc1ccc(C(=O)NC2CC2)cc1-c1cc2cnnc(-c3ccccc3C(F)(F)F)c2n(C)c1=O` [Example 10, N-cyclopropyl-4-methyl-3-(1-methyl-2-oxo-8-(2-(trifluoromethyl)phenyl)-1,2-dihydropyrido[3,2-d]pyridazin-3-yl)benzamide]: the IC50 is 2.9 nM in assay [1]; ≤ 1000 nM in assay [2] (LPS 100 ng/mL, 18 hours); ≤ 1000 nM in assay [3] (setting [4]).

For `Cc1c(F)cc(C(=O)NC2CC2)cc1-c1cc2cnnc(-c3ccccc3C(F)(F)F)c2n(C)c1=O` [Example 11, N-cyclopropyl-3-fluoro-4-methyl-5-(1-methyl-2-oxo-8-(2-(trifluoromethyl)phenyl)-1,2-dihydropyrido[3,2-d]pyridazin-3-yl)benzamide], the IC50 in assay [1] is 2.4 nM; in assay [2] (LPS 100 ng/mL, 18 hours), ≤ 1000 nM; in assay [3] (setting [4]), ≤ 1000 nM.

For the compound `Cc1ccc(C(=O)NC2CC2)cc1-c1cc2cnnc(-c3ccc(F)cc3C)c2n(C)c1=O` [Example 12, N-cyclopropyl-3-(8-(4-fluoro-2-methylphenyl)-1-methyl-2-oxo-1,2-dihydropyrido[3,2-d]pyridazin-3-yl)-4-methylbenzamide], the IC50 in assay [1] was 2.5 nM; in assay [2] (LPS 100 ng/mL, 18 hours), ≤ 1000 nM; in assay [3] (setting [4]), ≤ 1000 nM.

`Cc1ccc(C(=O)NC2CC2)cc1-c1cc2cnnc(-c3ccc(F)cc3Cl)c2n(C)c1=O` [Example 13, N-cyclopropyl-3-(8-(2-chloro-4-fluorophenyl)-1-methyl-2-oxo-1,2-dihydropyrido[3,2-d]pyridazin-3-yl)-4-methylbenzamide]: the IC50 is 2.8 nM in assay [1]; ≤ 1000 nM in assay [2] (LPS 100 ng/mL, 18 hours); ≤ 1000 nM in assay [3] (setting [4]).

In the case of `Cc1cc(F)ccc1-c1nncc2cc(-c3cc(C(=O)NC4CC4)cc(F)c3C)c(=O)n(C)c12` [Example 16, N-cyclopropyl-3-fluoro-5-(8-(4-fluoro-2-methylphenyl)-1-methyl-2-oxo-1,2-dihydropyrido[2,3-d]pyridazin-3-yl)-4-methylbenzamide], the IC50 in assay [1] was 3 nM; in assay [2] (LPS 100 ng/mL, 18 hours), ≤ 1000 nM; in assay [3] (setting [4]), ≤ 1000 nM.

On to `Cc1c(F)cc(C(=O)NC2CC2)cc1-c1cc2cnnc(-c3ccc(F)cc3Cl)c2n(C)c1=O` [Example 17, 3-(8-(2-chloro-4-fluorophenyl)-1-methyl-2-oxo-1,2-dihydropyrido[2,3-d]pyridazin-3-yl)-N-cyclopropyl-5-fluoro-4-methylbenzamide], for which the IC50 in assay [1] was 1.8 nM; in assay [2] (LPS 100 ng/mL, 18 hours) it was ≤ 1000 nM; in assay [3] (setting [4]) it was ≤ 1000 nM.

Consider `Cc1c(F)cc(C(=O)NC2CC2)cc1-c1cc2cnnc(-c3cc(F)ccc3Cl)c2n(C)c1=O` [Example 19, 3-(8-(2-chloro-5-fluorophenyl)-1-methyl-2-oxo-1,2-dihydropyrido[2,3-d]pyridazin-3-yl)-N-cyclopropyl-5-fluoro-4-methylbenzamide], for which the IC50 was 1.6 nM in assay [1]; ≤ 1000 nM in assay [2] (LPS 100 ng/mL, 18 hours); ≤ 1000 nM in assay [3] (setting [4]).

Take `Cc1ccc(C(=O)Nc2ccon2)cc1-c1cc2cnnc(-c3ccc(F)cc3Cl)c2n(C)c1=O` [Example 21, 3-(8-(2-chloro-4-fluorophenyl)-1-methyl-2-oxo-1,2-dihydropyrido[2,3-d]pyridazin-3-yl)-N-3-isoxazolyl-4-methylbenzamide]: the IC50 is 0.8 nM in assay [1]; ≤ 1000 nM in assay [2] (LPS 100 ng/mL, 18 hours); ≤ 1000 nM in assay [3] (setting [4]).

(Values after patent publication US8455495B2, “Pyridazino-pyridinone compounds and methods of use” (Amgen Inc., priority 2008, dated 2013).)
